ChEMBL document CHEMBL1149998, “Tannins as selective inhibitors of protein kinase C” (Bioorg Med Chem Lett, 1992)

Experiments:
[1] = molecular target: Protein kinase C, PKC; classical/novel (Homo sapiens) (UniProt O94806+P17252+P05129+Q05655+P05771+Q02156+P24723+Q15139+Q04759); assay: Displacement of phorbol [3H]PDBu from protein kinase C; A - Did displace phorbol (PDBu) at 50 uM or less; format: protein assay
Protein kinase C (PKC) = assay: Inhibitory activity against protein kinase C (PKC); format: protein assay, Homo sapiens
[2] = Inhibition of c-AMP kinase PKA; design: species or system Bos taurus
[3] = Inhibitory activity against c-AMP kinase; Did not inhibit c-AMP kinase

Row | Phorbol displacement [1] [µM] | IC50 (Protein kinase C (PKC)) [µM] | IC50 [2] [µM] | IC50 [3] | SMILES
1 | < 50 | 7 | 95 | – | O=C1OCC2OC(=O)c3cc(O)c(O)c(O)c3-c3c(O)c(O)c(O)c4c3C(=O)OC(C2OC(=O)c2cc(O)c(O)c(O)c2-c2c1cc(O)c(O)c2O)C1OC(=O)c2c-4c(O)c(O)c(O)c2[C@@H]1c1c(O)cc(O)c2c1O[C@H](c1ccc(O)c(O)c1)[C@@H](O)C2 (stereo not given in full)
2 | < 50 | 5 | 48 | – | O=C(O[C@@H]1O[C@H]2COC(=O)c3cc(O)c(O)c(O)c3-c3c(cc(O)c(O)c3O)C(=O)O[C@H]2[C@@H]2OC(=O)c3cc(O)c(O)c(O)c3-c3c(cc(O)c(O)c3O)C(=O)O[C@H]12)c1cc(O)c(O)c(Oc2c(O)c(O)c(O)c3c2C(=O)O[C@H]2[C@@H]4OC(=O)c5cc(O)c(O)c(O)c5-c5c(cc(O)c(O)c5O)C(=O)O[C@@H]4[C@H](OC(=O)c4cc(O)c(O)c(O)c4)O[C@H]2COC(=O)c2cc(O)c(O)c(O)c2-3)c1
3 | < 50 | 10 | 22 | – | O=C(O[C@@H]1O[C@H]2COC(=O)c3cc(O)c(O)c(O)c3-c3c(cc(O)c(O)c3O)C(=O)O[C@H]2[C@@H]2OC(=O)c3cc(O)c(O)c(O)c3-c3c(cc(O)c(O)c3O)C(=O)O[C@H]12)c1cc(O)c(O)c(Oc2c(O)c(O)c(O)c3c2C(=O)O[C@H]2[C@@H]4OC(=O)c5cc(O)c(O)c(O)c5-c5c(cc(O)c(O)c5O)C(=O)O[C@@H]4[C@H](OC(=O)c4cc(O)c(O)c(Oc5c(O)c(O)c(O)c6c5C(=O)O[C@H]5[C@@H]7OC(=O)c8cc(O)c(O)c(O)c8-c8c(cc(O)c(O)c8O)C(=O)O[C@@H]7[C@H](OC(=O)c7cc(O)c(O)c(Oc8c(O)c(O)c(O)c9c8C(=O)O[C@H]8[C@@H]%10OC(=O)c%11cc(O)c(O)c(O)c%11-c%11c(cc(O)c(O)c%11O)C(=O)O[C@@H]%10[C@H](OC(=O)c%10cc(O)c(O)c(O)c%10)O[C@H]8COC(=O)c8cc(O)c(O)c(O)c8-9)c7)O[C@H]5COC(=O)c5cc(O)c(O)c(O)c5-6)c4)O[C@H]2COC(=O)c2cc(O)c(O)c(O)c2-3)c1
4 | < 50 | 16 | 65 | – | O=C1O[C@H]2[C@@H]3OC(=O)c4cc(O)c(O)c(O)c4-c4c(cc(Oc5c(C(=O)O)cc(O)c(O)c5O)c(O)c4O)C(=O)OC[C@H]2O[C@@H](OC(=O)c2cc(O)c(O)c(O)c2)[C@@H]3OC(=O)c2cc(O)c(O)c3c2C2C1=CC(=O)C(O)(O)C2(O)O3 (stereo not given in full) [E181]
5 | < 50 | 11 | 84 | – | O=C(OC1COC(=O)c2cc(O)c(O)c(O)c2-c2c(cc(O)c(O)c2O)C(=O)OC1C1OC(=O)c2cc(O)c(O)c(O)c2-c2c(O)c(O)c(O)c3c2C(=O)OC1[C@@H]3O)c1cc(O)c(O)c(O)c1 (stereo not given in full)
6 | < 50 | 4 | 44 | – | O=C1OCC2OC(=O)c3cc(O)c(O)c(O)c3-c3c(O)c(O)c(O)c4c3C(=O)OC(C2OC(=O)c2cc(O)c(O)c(O)c2-c2c1cc(O)c(O)c2O)C1OC(=O)C2C4=C(O)C(=O)C23Oc2cc(O)c4c(c2[C@H]13)O[C@H](c1ccc(O)c(O)c1)[C@@H](O)C4 (stereo not given in full)
7 | < 50 | 3 | 32 | – | O=C(OC[C@@H]1O[C@@H](OC(=O)c2cc(O)c(O)c(O)c2)[C@@H](OC(=O)c2cc(O)c(O)c(O)c2)[C@@H](OC(=O)c2cc(O)c(O)c(O)c2)[C@@H]1OC(=O)c1cc(O)c(O)c(O)c1Oc1cc2c(c(O)c1O)-c1c(cc(O)c(O)c1O)C(=O)OC[C@@H]1O[C@@H](OC(=O)c3cc(O)c(O)c(O)c3)[C@@H](OC(=O)c3cc(O)c(O)c(O)c3)[C@@H](OC(=O)c3cc(O)c(O)c(O)c3)[C@@H]1OC2=O)c1cc(O)c(O)c(O)c1
8 | < 50 | 20 | 100 | – | O=C(O[C@@H]1O[C@@H]2COC(=O)c3cc(Oc4c(C(=O)O)cc(O)c(O)c4O)c(O)c(O)c3-c3c(cc(O)c(O)c3O)C(=O)O[C@H]([C@H]1O)[C@@H]2O)c1cc(O)c(O)c(O)c1
9 | < 50 | 8 | – | Not Active | O=C1OCC2OC(=O)c3cc(O)c(O)c(O)c3-c3c(O)c(O)c(O)c4c3C(=O)OC(C2OC(=O)c2cc(O)c(O)c(O)c2-c2c1cc(O)c(O)c2O)C1OC(=O)c2c-4c(O)c(O)c(O)c2[C@H]1O (stereo not given in full)
10 | < 50 | 48 | – | Not Active | O=C(OC1Cc2c(O)cc(O)cc2O[C@@H]1c1ccc(O)c(O)c1)c1cc(O)c(O)c(O)c1 (stereo not given in full)
